These are literature values, as cited in patent US8895039B2, “Cosmetic preparations containing hydrocarbons” (Cognis IP Management GmbH, priority 2007, dated 2014).

For the data set the following is noted: at 20° C.

Consider `CCCCCCCCC` [Nonane], for which the Viscosity is listed as 0.711 cP.
